Laboratory results reported in US20140057915A1, “KINASE INHIBITORS” (TOPIVERT PHARMA LIMITED, priority 2012, published 2014).

How the values were obtained:
cSrc = cSrc (Homo sapiens, UniProt P12931); assay: c-Src enzyme inhibition (FRET); assay type: biochemical
In short: (§1)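 2 hr RT enzyme + cpd (added solns 4/0.4/0.04/0.004 μg/mL); + FRET peptide (8 μM soln) + ATP soln (c-Src 800 μM, Syk 60 μM), 1 hr; protease development 1 hr; read donor/acceptor emission ratio.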

Syk = Syk (Homo sapiens, UniProt P43405); assay: Syk enzyme inhibition (FRET); assay type: biochemical
In short: as §1

GSK3α [1] = molecular target: T1, GSK3α (Homo sapiens, UniProt P49840); assay: GSK 3α enzyme inhibition (FRET), Method 1; assay type: biochemical; settings: Table 4a1
In short: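 Steps: preincubate GSK3α with compound 2 hr at room temperature; start reaction with peptide and ATP for 1 hr; develop with site-specific protease for 1 hr; measure fluorescence and take the coumarin/fluorescein ratio as the phosphorylation level.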

[2] = system: TNFα release, d-U937 cells; assay: LPS-induced TNFα release in d-U937 cells; assay type: cell-based; settings: Homo sapiens, dU937; relative to 10 μg/mL BIRB796; Table 4c1; read-out: LPS Induced Release of Cytokine in d-U937 Cells, TNFα REC50
In short: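 U937 cells differentiated with PMA (100 ng/mL, 48–72 hr), pre-treated with compound for 2 hr, then stimulated with E. coli LPS (0.1 μg/mL) for 4 hr. Supernatant cytokine measured by sandwich ELISA; inhibition versus vehicle control, REC50 from concentration-response curve.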

[3] = system: IL-8 release, d-U937 cells; assay: LPS-induced IL-8 release in d-U937 cells; assay type: cell-based; settings: Homo sapiens, dU937; Table 4c1; read-out: LPS Induced Release of Cytokine in d-U937 Cells, IL-8 IC50
In short: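 IL-8 release after a 4 hr challenge with LPS (0.1 μg/mL, E. coli 0111:B4) following a 2 hr compound pretreatment. Cells were human U937 monocytes differentiated to macrophage-type with PMA 100 ng/mL for 48–72 hr. Relative 50% effective concentration derived from concentration–response data.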

[4] = system: ICAM-1 expression, BEAS2B cells; assay: Poly I:C-induced ICAM-1 expression in BEAS2B cells; assay type: cell-based; settings: Homo sapiens, BEAS-2B; read-out: Poly IC induced ICAM1 in BEAS2B, IC50
In short: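 BEAS2B human bronchial epithelial cells pre-incubated 2 h with compound, then transfected with poly I:C (1 μg/mL) plus Oligofectamine. After 18 h, cell-surface ICAM-1 read by cell-based ELISA (A450–655), normalised to Crystal Violet cell number (A595); inhibition calculated against vehicle control at each concentration.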

HRV16 in MRC5 cells = assay: HRV16 induced CPE in MRC5 cells; assay type: cell-based; settings: Human rhinovirus sp., HRV-16
Description: (j) Assessment of HRV16 Induced CPE in MRC5 Cells
MRC-5 cells are infected with HRV16 at an MOI of 1n DMEM containing 5% FCS and 1.5 mM magnesium chloride, followed by incubation for 1 hr at 33° C. to promote adsorption. The supernatants are aspirated, and then fresh media added followed by incubation for 4 days. Where appropriate, cells are pre-incubated with compound or DMSO for 2 hr, and the compounds and DMSO added again after washout of the virus.
After washing, 1% SDS in distilled water (100 μL) is added to each well, and the plates are shaken lightly for 1-2 hr prior to reading the absorbance at 660 nm. The percentage inhibition for each well is calculated. The IC50 value is calculated from the concentration-response curve generated by the serial dilutions of the test compounds.

d-U937 cells = assay: Cell viability: MTT assay; assay type: cell-based, human; settings: 1 μg/mL
In short: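 Differentiated U937 cells exposed to compound at 1 or 10 μg/mL, either 4 h in 5% FCS or 24 h in 10% FCS RPMI1640. MTT then added for 1 h, formazan dissolved in DMSO and read at 550 nm. Viability loss given as % versus 0.5% DMSO vehicle; apparent gains appear negative.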

GSK3α [5] = molecular target: T1, GSK3α; assay: GSK 3α enzyme inhibition (FRET), Method 2; assay type: biochemical; settings: Table 4a2, different laboratory
IL-8 release, PBMCs = assay: LPS-induced IL-8 release in PBMC cells; assay type: cell-based; settings: Homo sapiens, LPS stimulated, read-out: IC50 Values for Inhibition of Cytokine Release, PBMCs, IL-8
Description: (b) LPS-Induced TNFα/IL-8 Release in PBMC Cells
Peripheral blood mononuclear cells (PBMCs) from healthy subjects are separated from whole blood using a density gradient (Lymphoprep, Axis-Shield Healthcare). The PBMCs are seeded in 96 well plates and treated with compounds at the desired concentration for 2 hours before addition of 1 ng/ml LPS (Escherichia Coli 0111:B4 from Sigma Aldrich) for 24 hours under normal tissue culture conditions (37° C., 5% CO2). The supernatant is harvested for determination of […] concentrations by sandwich ELISA (Duo-set, R&D systems) and read on the fluorescence microplate reader (Varioskan® Flash, ThermoFisher Scientific).

IL-2 release, PBMCs = assay: IL-2 release in CD3/CD28 stimulated PBMC cells; assay type: cell-based; settings: Homo sapiens, read-out: IC50 Values for Inhibition of Cytokine Release, PBMCs, IL-2
Description: (§2) (c) IL-2 and IFN Gamma Release in CD3/CD28 Stimulated PBMC Cells
(§3) PBMCs from healthy subjects are separated from whole blood using a density gradient (Lymphoprep, Axis-Shield Healthcare). Cells are added to a 96 well plate pre-coated with a mixture of […] monoclonal antibodies (0.3 ug/ml eBioscience and 3 ug/ml BD Pharmingen respectively). Compound at the desired concentration is then added to the wells and the plate left for 3 days under normal tissue culture conditions. Supernatants are harvested and IL-2 and IFN gamma release determined by Sandwich ELISA (Duo-set, R&D System). The IC50 is determined from the dose response curve.

IFN gamma release, PBMCs = assay: IFN gamma release in CD3/CD28 stimulated PBMC cells; assay type: cell-based; settings: Homo sapiens, read-out: IC50 Values for Inhibition of Cytokine Release, PBMCs, IFNγ
Description: as §2, §3

PBMC cells = assay: Cell mitosis assay; assay type: cell-based; settings: Homo sapiens, read-out: % Inhibition of mitosis in PBMC cells at 5 μg/mL
Description: PBMCs from healthy subjects are separated from whole blood (Quintiles, London, UK) using a density gradient (Histopaque®-1077, Sigma-Aldrich, Poole, UK). The PBMCs (3 million cells per sample) are subsequently treated with 2% PHA (Sigma-Aldrich, Poole, UK) for 48 hr, followed by a 20 hr exposure to varying concentrations of test compounds. At 2 hr before collection, PBMCs are treated with demecolcine (0.1 μg/mL; Invitrogen, Paisley, UK) to arrest cells in metaphase. […] Fluorescence is observed using an ATTUNE flow cytometer (Invitrogen, Paisley, UK), gating for lymphocytes.

[6] = Table 4a2, different laboratory

Sequence of cSrc (P12931 whole entry): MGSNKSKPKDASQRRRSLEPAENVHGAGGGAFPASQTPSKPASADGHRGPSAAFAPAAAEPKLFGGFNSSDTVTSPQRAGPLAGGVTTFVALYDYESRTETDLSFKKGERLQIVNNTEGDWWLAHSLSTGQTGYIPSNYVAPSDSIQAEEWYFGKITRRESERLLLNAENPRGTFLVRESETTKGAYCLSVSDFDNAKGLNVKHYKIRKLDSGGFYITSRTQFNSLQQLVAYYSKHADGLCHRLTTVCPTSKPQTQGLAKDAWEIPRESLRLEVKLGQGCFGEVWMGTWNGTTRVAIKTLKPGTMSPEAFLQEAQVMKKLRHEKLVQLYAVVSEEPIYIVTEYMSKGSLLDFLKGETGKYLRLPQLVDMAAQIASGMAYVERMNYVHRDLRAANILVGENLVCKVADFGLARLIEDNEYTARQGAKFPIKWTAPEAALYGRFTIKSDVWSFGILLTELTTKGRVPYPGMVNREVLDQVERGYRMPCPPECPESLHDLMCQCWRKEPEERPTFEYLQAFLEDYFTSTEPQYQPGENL
T1 sequence (P49840 whole entry): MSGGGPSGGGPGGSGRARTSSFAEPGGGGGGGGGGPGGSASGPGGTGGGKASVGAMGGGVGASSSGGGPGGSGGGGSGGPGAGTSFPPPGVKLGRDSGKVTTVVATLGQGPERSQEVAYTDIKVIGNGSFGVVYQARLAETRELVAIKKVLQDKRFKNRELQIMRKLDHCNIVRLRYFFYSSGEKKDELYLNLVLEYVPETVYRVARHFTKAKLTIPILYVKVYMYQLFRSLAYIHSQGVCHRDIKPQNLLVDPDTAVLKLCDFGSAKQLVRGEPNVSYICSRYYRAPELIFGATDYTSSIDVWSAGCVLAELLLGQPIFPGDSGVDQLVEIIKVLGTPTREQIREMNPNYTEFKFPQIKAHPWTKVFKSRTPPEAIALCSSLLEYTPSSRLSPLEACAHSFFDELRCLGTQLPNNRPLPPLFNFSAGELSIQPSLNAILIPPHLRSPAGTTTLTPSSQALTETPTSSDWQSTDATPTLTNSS

Structure (SMILES) | IC50 (cSrc; Table 4a1) [nM] | IC50 (Syk; Table 4a1) [nM] | IC50 (GSK3α [1]) [nM] | EC50 [2] [nM] | IC50 [3] [nM] | IC50 (cSrc; [6]) [nM] | IC50 (Syk; [6]) [nM] | IC50 (GSK3α [5]) [nM] | IC50 [4] [nM] | IC50 (HRV16 in MRC5 cells) [nM] | Cell viability at time point in d-U937 cells, 4 h (d-U937 cells) | Cell viability at time point in d-U937 cells, 24 h (d-U937 cells) | IC50 (IL-8 release, PBMCs) [nM] | IC50 (IL-2 release, PBMCs) [nM] | IC50 (IFN gamma release, PBMCs) [nM] | inhibition at 5 µg/mL (PBMC cells) [%]
COc1ccc(C(=O)NCCN2CCOCC2)cc1Nc1nccc(Oc2ccc(NC(=O)Nc3cc(C(C)C)nn3-c3ccc(C)cc3)c3ccccc23)n1 [Example 30, 3-((4-((4-(3-(3-isopropyl-1-(p-tolyl)-1H-pyrazol-5-yl)ureido)naphthalen-1-yl)oxy)pyrimidin-2-yl)amino)-4-methoxy-N-(2-morpholinoethyl)benzamide] | 1 | 103 | > 13200 | 2.1 | 9 | – | – | – | 117 | 0.43 | −ve (−ve and +ve indicate that the value is below and above respectively, the no significant effect threshold, defined as 30% inhibition at 1 μg/mL at the time point indicated) | −ve (−ve and +ve indicate that the value is below and above respectively, the no significant effect threshold, defined as 30% inhibition at 1 μg/mL at the time point indicated) | – | – | – | –
C#Cc1cc(Nc2nccc(Oc3ccc(NC(=O)Nc4cc(C(C)(C)C#N)nn4-c4ccc(C)cc4)c4ccccc34)n2)cc(C(=O)NCCN2CCOCC2)c1 [Example 78, 3-((4-((4-(3-(3-(2-Cyanopropan-2-yl)-1-(p-tolyl)-1H-pyrazol-5-yl)ureido)-naphthalen-1-yl)oxy)pyrimidin-2-yl)amino)-5-ethynyl-N-(2-morpholinoethyl)benzamide] | – | – | – | – | – | 8 | 23 | 2810 | – | – | – | – | 0.9 | 27.3 | 2.4 | 2.1
Cc1ccc(-n2nc(C(C)(C)C)cc2NC(=O)Nc2ccc(Oc3ccnc(Nc4cccc(C(N)=O)c4)n3)c3ccccc23)cc1 [Example 2, 3-((4-((4-(3-(3-(tert-Butyl)-1-(p-tolyl)-1H-pyrazol-5-yl)ureido)naphthalen-1-yl)oxy)pyrimidin-2-yl)amino)benzamide] | 5 | 250 | 1260 | 0.8 | 4.5 | – | – | – | 1 | – | −ve (−ve and +ve indicate that the value is below and above respectively, the no significant effect threshold, defined as 30% inhibition at 1 μg/mL at the time point indicated) | −ve (−ve and +ve indicate that the value is below and above respectively, the no significant effect threshold, defined as 30% inhibition at 1 μg/mL at the time point indicated) | – | – | – | 46.5
COc1cc(Nc2nccc(Oc3ccc(NC(=O)Nc4cc(C(C)C)nn4-c4ccc(C)cc4)c4ccccc34)n2)cc(C(=O)N2CCOCC2)c1 [Example 12, 1-(3-Isopropyl-1-(p-tolyl)-1H-pyrazol-5-yl)-3-(4-((2-((3-methoxy-5-(morpholine-4-carbonyl)phenyl)amino)pyrimidin-4-yl)oxy)naphthalen-1-yl)urea] | 5 | 16 | 509 | 0.5 | 1 | – | – | – | 2.5 | – | −ve (−ve and +ve indicate that the value is below and above respectively, the no significant effect threshold, defined as 30% inhibition at 1 μg/mL at the time point indicated) | −ve (−ve and +ve indicate that the value is below and above respectively, the no significant effect threshold, defined as 30% inhibition at 1 μg/mL at the time point indicated) | – | – | – | 27.8

Continued, in another order:

IC50 (cSrc; Table 4a1) [nM] | IC50 (Syk; Table 4a1) [nM] | IC50 (GSK3α [1]) [nM] | EC50 [2] [nM] | IC50 [3] [nM] | IC50 (cSrc; [6]) [nM] | IC50 (Syk; [6]) [nM] | IC50 (GSK3α [5]) [nM] | Structure (SMILES) | IC50 [4] [nM] | IC50 (HRV16 in MRC5 cells) [nM] | Cell viability at time point in d-U937 cells, 4 h (d-U937 cells) | Cell viability at time point in d-U937 cells, 24 h (d-U937 cells) | IC50 (IL-8 release, PBMCs) [nM] | IC50 (IL-2 release, PBMCs) [nM] | IC50 (IFN gamma release, PBMCs) [nM] | inhibition at 5 µg/mL (PBMC cells) [%]
– | – | – | – | – | – | – | 12200 | C#Cc1cc(Nc2nccc(Oc3ccc(NC(=O)Nc4cc(C(C)(C)C)nn4-c4ccc(C)cc4)c4ccccc34)n2)cc(C(=O)NC(C)(C)CN2CCOCC2)c1 [Example 82, 3-((4-((4-(3-(3-(tert-Butyl)-1-(p-tolyl)-1H-pyrazol-5-yl)ureido)naphthalen-1-yl)oxy)pyrimidin-2-yl)amino)-5-ethynyl-N-(2-methyl-1-morpholinopropan-2-yl)-benzamide] | – | – | – | – | 7.1 | 37.4 | 3.9 | -6.3
– | – | – | – | – | 15 | 33 | ≥ 13800 | C#Cc1cc(Nc2nccc(Oc3ccc(NC(=O)Nc4cc(C(C)(C)C)nn4-c4ccc(OC)cc4)c4ccccc34)n2)cc(C(=O)NCCOC)c1 [Example 84, 3-((4-((4-(3-(3-(tert-Butyl)-1-(4-methoxyphenyl)-1H-pyrazol-5-yl)ureido)-naphthalen-1-yl)oxy)pyrimidin-2-yl)amino)-5-ethynyl-N-(2-methoxyethyl)benzamide] | – | – | – | – | 1.6 | 16 | 2.2 | 0.5
– | – | – | – | – | 33 | 92 | 7950 | C#Cc1cc(Nc2nccc(Oc3ccc(NC(=O)Nc4cc(C(C)(C)C)nn4-c4ccc(OC)cc4)c4ccccc34)n2)cc(C(=O)N[C@@H](C)COC)c1 [Example 85, (S)-3-((4-((4-(3-(3-(tert-Butyl)-1-(4-methoxyphenyl)-1H-pyrazol-5-yl)ureido)-naphthalen-1-yl)oxy)pyrimidin-2-yl)amino)-5-ethynyl-N-(1-methoxypropan-2-yl)-benzamide] | – | – | – | – | 2.8 | 27.3 | 3.1 | 6.6
